According to patent US20230181801A1, “MOLECULAR IODINE-INFUSED POLYMERS, ARTICLES, AND PRODUCTS, AND THEIR PREPARATION AND USE” (I2PURE CORP., priority 2021, published 2023):

Key:
[1] = Stability of molecular iodine in solvent at room temperature; assay type: physicochemical; conditions: in ethanol, 15 days at room temperature in the dark
[2] = room temperature; cited from earlier work

## II [I2, molecular iodine]
[1]
  loss of molecular iodine: over 15%
[2]
  maximum solubility in water: 332 ppm
